Measured values taken from patent US10681909B2, “Herbicidal triazoles” (FMC Corporation, priority 2014, dated 2020).

Key:
[1] = tested on: corn; assay: Test C preemergence; assay type: in vivo, Zea mays; conditions: for Plant response rating (scale of 0 to 100 where 0 is no effect and 100 is complete control): Corn, preemergence; for Corn plant response rating (0 to 100): Preemergence, visual rating after 13 to 15 d
From the text: (§1) Seeds of plant species selected from blackgrass (Alopecurus myosuroides), ryegrass, Italian (Italian ryegrass, Lolium multiflorum), wheat (winter wheat, Triticum aestivum), galium (catchweed bedstraw, Galium aparine), corn (Zea mays), crabgrass, large (large crabgrass, Digitaria sanguinalis), foxtail, giant, (giant foxtail, Setaria faberii), johnsongrass (Sorghum halepense), lambsquarters (Chenopodium album), morningglory (Ipomoea coccinea), nutsedge, yellow (yellow nutsedge, Cyperus esculentus), pigweed (Amaranthus retroflexus), ragweed (common ragweed, Ambrosia elatior), soybean (Glycine max), barnyardgrass (Echinochloa crus-galli), oilseed rape (Brassica napus), waterhemp (common waterhemp, Amaranthus rudis), and velvetleaf (Abutilon theophrasti) were planted into a blend of loam soil and sand and treated preemergence with test chemicals formulated in a non-phytotoxic solvent mixture which included a surfactant. At the same time, plants selected from these crop and weed species and also chickweed (common chickweed, Stellaria media), oat, wild (wild oat, Avena fatua), and kochia (Kochia scoparia), were planted in pots containing Sunshine Redi-Earth® planting medium comprising spaghnum peat moss, vermiculite, starter nutrients and dolomitic limestone and treated with postemergence applications of test chemicals formulated in the same manner. Plants ranged in height from 2 to 18 cm (1- to 4-leaf stage) for postemergence treatments. […] A dash (-) response means no test result.

[2] = tested on: oilseed rape; assay: Test D preemergence; assay type: in vivo, Brassica napus; conditions: for Plant response rating (0 to 100), Oilseed Rape: 16 g ai/ha, 0 is no effect, 100 is complete control; for Plant response rating: Oilseed Rape: scale 0 to 100
From the text: (§2) Seeds of plant species selected from bluegrass (annual bluegrass, Poa annua), blackgrass (Alopecurus myosuroides), canarygrass (Phalaris minor), chickweed (common chickweed, Stellaria media), galium (catchweed bedstraw, Galium aparine), bromegrass, down (downy bromegrass, Bromus tectorum), Russian thistle (Salsola kali), field poppy (Papaver rhoeas), field violet (Viola arvensis), foxtail, green (green foxtail, Setaria viridis), deadnettle (henbit deadnettle, Lamium amplexicaule), ryegrass, Ital. (Italian ryegrass, Lolium multiflorum), kochia (Kochia scoparia), lambsquarters (Chenopodium album), oilseed rape (Brassica napus), pigweed (Amaranthus retroflexus), chamomile (scentless chamomile, Matricaria inodora), speedwell (bird's-eye speedwell, Veronica persica), barley, spring (spring barley, Hordeum vulgare), wheat, spring (spring wheat, Triticum aestivum), buckwheat, wild (wild buckwheat, Polygonum convolvulus), wild mustard (Sinapis arvensis), oat, wild (wild oat, Avena fatua), radish, wild (wild radish, Raphanus raphanistrum), […]), barley, winter (winter barley, Hordeum vulgare), and wheat, winter (winter wheat, Triticum aestivum) were planted into a silt loam soil and treated preemergence with test chemicals formulated in a non-phytotoxic solvent mixture which included a surfactant. At the same time, these species were planted in pots containing Sunshine Redi-Earth® planting medium comprising spaghnum peat moss, vermiculite, starter nutrients and dolomitic limestone and treated with postemergence applications of the test chemicals formulated in the same manner. Plants ranged in height from 2 to 18 cm (1- to 4-leaf stage). Treated plants and controls were maintained in a controlled growth environment for 14 to 21 d after which time all species were compared to controls and visually evaluated. […] A dash (-) response means no test result.

[3] = tested on: lambsquarters; assay: Test C preemergence; assay type: in vivo, Chenopodium album; conditions: for Plant response rating (scale of 0 to 100 where 0 is no effect and 100 is complete control): Lambsquarters, preemergence; for Lambsquarters plant response rating (0 to 100): Preemergence, visual rating after 13 to 15 d
From the text: as §1

[4] = tested on: bromegrass, down; assay: Test D preemergence; assay type: in vivo, Bromus tectorum; conditions: for Plant response rating (0 to 100), Bromegrass, Down: 16 g ai/ha, 0 is no effect, 100 is complete control; for Plant response rating: Bromegrass, Down: scale 0 to 100
From the text: as §2

[5] = tested on: buckwheat, wild; assay: Test D preemergence; assay type: in vivo, Polygonum convolvulus; conditions: for Plant response rating (0 to 100), Buckwheat, Wild: 16 g ai/ha, 0 is no effect, 100 is complete control; for Plant response rating: Buckwheat, Wild: scale 0 to 100
From the text: as §2

[6] = tested on: canarygrass; assay: Test D preemergence; assay type: in vivo, Phalaris minor; conditions: for Plant response rating (0 to 100), Canarygrass: 16 g ai/ha, 0 is no effect, 100 is complete control; for Plant response rating: Canarygrass: scale 0 to 100
From the text: as §2

[7] = tested on: oilseed rape; assay: Test C preemergence; assay type: in vivo, Brassica napus; conditions: for Plant response rating (scale of 0 to 100 where 0 is no effect and 100 is complete control): Oilseed Rape, preemergence; for Oilseed Rape plant response rating (0 to 100): Preemergence, visual rating after 13 to 15 d
From the text: as §1

[8] = tested on: galium; assay: Test D preemergence; assay type: in vivo, Galium aparine; conditions: for Plant response rating (0 to 100), Galium: 16 g ai/ha, 0 is no effect, 100 is complete control; for Plant response rating: Galium: scale 0 to 100
From the text: as §2

[9] = tested on: radish, wild; assay: Test D preemergence; assay type: in vivo, Raphanus raphanistrum; conditions: for Plant response rating (0 to 100), Radish, Wild: 16 g ai/ha, 0 is no effect, 100 is complete control; for Plant response rating: Radish, Wild: scale 0 to 100
From the text: as §2

[10] = tested on: oat, wild; assay: Test D postemergence; assay type: in vivo, Avena fatua; conditions: scale 0 to 100
From the text: as §2

[11] = tested on: speedwell; assay: Test D postemergence; assay type: in vivo, Veronica persica; conditions: scale 0 to 100
From the text: as §2

[12] = tested on: barley, winter; assay: Test D postemergence; assay type: in vivo, Hordeum vulgare; conditions: scale 0 to 100
From the text: as §2

[13] = tested on: barley, spring; assay: Test D postemergence; assay type: in vivo, Hordeum vulgare; conditions: scale 0 to 100
From the text: as §2

SMILES: CCOc1nc(-c2ccc(C(F)(F)F)cc2)nn1Cc1ccnc(C(F)(F)F)c1 [Compound 35, 4-[[5-ethoxy-3-[4-(trifluoromethyl)phenyl]-1H-1,2,4-triazole-1-yl]methyl]-2-(trifluoromethyl)pyridine]
- Plant response rating (scale of 0 to 100 where 0 is no effect and 100 is complete control) ([1]; 125 g ai/ha): 35
- Plant response rating (scale of 0 to 100 where 0 is no effect and 100 is complete control) ([1]; 250 g ai/ha): 45
- Corn plant response rating (0 to 100) ([1]; 31 g ai/ha): 5
- Corn plant response rating (0 to 100) ([1]; 62 g ai/ha): 15
- Plant response rating (0 to 100), Oilseed Rape [2]: 25
- Plant response rating: Oilseed Rape ([2]; 62 g ai/ha): 40
- Plant response rating: Oilseed Rape ([2]; 125 g ai/ha): 100
- Plant response rating (scale of 0 to 100 where 0 is no effect and 100 is complete control) ([3]; 125 g ai/ha): 100
- Plant response rating (scale of 0 to 100 where 0 is no effect and 100 is complete control) ([3]; 250 g ai/ha): 98
- Lambsquarters plant response rating (0 to 100) ([3]; 31 g ai/ha): 98
- Lambsquarters plant response rating (0 to 100) ([3]; 62 g ai/ha): 98
- Plant response rating (0 to 100), Bromegrass, Down [4]: 15
- Plant response rating: Bromegrass, Down ([4]; 31 g ai/ha): 40
- Plant response rating: Bromegrass, Down ([4]; 62 g ai/ha): 60
- Plant response rating: Bromegrass, Down ([4]; 125 g ai/ha): 75
- Plant response rating (0 to 100), Buckwheat, Wild [5]: 65
- Plant response rating: Buckwheat, Wild ([5]; 31 g ai/ha): 70
- Plant response rating: Buckwheat, Wild ([5]; 62 g ai/ha): 70
- Plant response rating: Buckwheat, Wild ([5]; 125 g ai/ha): 95
- Plant response rating (0 to 100), Canarygrass [6]: 45
- Plant response rating: Canarygrass ([6]; 31 g ai/ha): 95
- Plant response rating: Canarygrass ([6]; 62 g ai/ha): 100
- Plant response rating: Canarygrass ([6]; 125 g ai/ha): 100
- Plant response rating (scale of 0 to 100 where 0 is no effect and 100 is complete control) ([7]; 125 g ai/ha): 90
- Plant response rating (scale of 0 to 100 where 0 is no effect and 100 is complete control) ([7]; 250 g ai/ha): 90
- Oilseed Rape plant response rating (0 to 100) ([7]; 31 g ai/ha): 80
- Oilseed Rape plant response rating (0 to 100) ([7]; 62 g ai/ha): 75
- Plant response rating (0 to 100), Galium [8]: 70
- Plant response rating: Galium ([8]; 62 g ai/ha): 80
- Plant response rating: Galium ([8]; 125 g ai/ha): 80
- Plant response rating (0 to 100), Radish, Wild [9]: 65
- Plant response rating: Radish, Wild ([9]; 62 g ai/ha): 85
- Plant response rating: Radish, Wild ([9]; 125 g ai/ha): 100
- Plant response rating: Oat, Wild ([10]; 16 g ai/ha): 40
- Plant response rating: Oat, Wild ([10]; 31 g ai/ha): 65
- Plant response rating: Oat, Wild ([10]; 62 g ai/ha): 75
- Plant response rating: Oat, Wild ([10]; 125 g ai/ha): 80
- Plant response rating: Speedwell ([11]; 16 g ai/ha): 75
- Plant response rating: Speedwell ([11]; 31 g ai/ha): 85
- Plant response rating: Speedwell ([11]; 62 g ai/ha): 90
- Plant response rating: Speedwell ([11]; 125 g ai/ha): 100
- Plant response rating: Barley, Winter ([12]; 16 g ai/ha): 25
- Plant response rating: Barley, Winter ([12]; 31 g ai/ha): 40
- Plant response rating: Barley, Winter ([12]; 62 g ai/ha): 40
- Plant response rating: Barley, Winter ([12]; 125 g ai/ha): 50
- Plant response rating: Barley, Spring ([13]; 16 g ai/ha): 30
- Plant response rating: Barley, Spring ([13]; 31 g ai/ha): 40
- Plant response rating: Barley, Spring ([13]; 62 g ai/ha): 40
- Plant response rating: Barley, Spring ([13]; 125 g ai/ha): 50

SMILES: CCOc1nc(-c2ccccc2)nn1Cc1ccnc(C(F)(F)F)c1 [Compound 27]
- Plant response rating (scale of 0 to 100 where 0 is no effect and 100 is complete control) ([1]; 125 g ai/ha): 55
- Plant response rating (scale of 0 to 100 where 0 is no effect and 100 is complete control) ([1]; 250 g ai/ha): 60
- Corn plant response rating (0 to 100) ([1]; 31 g ai/ha): 25
- Corn plant response rating (0 to 100) ([1]; 62 g ai/ha): 40
- Plant response rating (0 to 100), Oilseed Rape [2]: 5
- Plant response rating: Oilseed Rape ([2]; 62 g ai/ha): 60
- Plant response rating: Oilseed Rape ([2]; 125 g ai/ha): 80
- Plant response rating (scale of 0 to 100 where 0 is no effect and 100 is complete control) ([3]; 125 g ai/ha): 98
- Plant response rating (scale of 0 to 100 where 0 is no effect and 100 is complete control) ([3]; 250 g ai/ha): 100
- Lambsquarters plant response rating (0 to 100) ([3]; 31 g ai/ha): 90
- Lambsquarters plant response rating (0 to 100) ([3]; 62 g ai/ha): 98
- Plant response rating (0 to 100), Bromegrass, Down [4]: 0
- Plant response rating: Bromegrass, Down ([4]; 31 g ai/ha): 20
- Plant response rating: Bromegrass, Down ([4]; 62 g ai/ha): 65
- Plant response rating: Bromegrass, Down ([4]; 125 g ai/ha): 70
- Plant response rating (0 to 100), Buckwheat, Wild [5]: 65
- Plant response rating: Buckwheat, Wild ([5]; 31 g ai/ha): 80
- Plant response rating: Buckwheat, Wild ([5]; 62 g ai/ha): 70
- Plant response rating: Buckwheat, Wild ([5]; 125 g ai/ha): 85
- Plant response rating (0 to 100), Canarygrass [6]: 35
- Plant response rating: Canarygrass ([6]; 31 g ai/ha): 55
- Plant response rating: Canarygrass ([6]; 62 g ai/ha): 75
- Plant response rating: Canarygrass ([6]; 125 g ai/ha): 98
- Plant response rating (scale of 0 to 100 where 0 is no effect and 100 is complete control) ([7]; 125 g ai/ha): 100
- Plant response rating (scale of 0 to 100 where 0 is no effect and 100 is complete control) ([7]; 250 g ai/ha): 100
- Oilseed Rape plant response rating (0 to 100) ([7]; 31 g ai/ha): 90
- Oilseed Rape plant response rating (0 to 100) ([7]; 62 g ai/ha): 90
- Plant response rating (0 to 100), Galium [8]: 70
- Plant response rating: Galium ([8]; 62 g ai/ha): 100
- Plant response rating: Galium ([8]; 125 g ai/ha): 100
- Plant response rating (0 to 100), Radish, Wild [9]: 75
- Plant response rating: Radish, Wild ([9]; 62 g ai/ha): 85
- Plant response rating: Radish, Wild ([9]; 125 g ai/ha): 100
- Plant response rating: Oat, Wild ([10]; 16 g ai/ha): 35
- Plant response rating: Oat, Wild ([10]; 31 g ai/ha): 45
- Plant response rating: Oat, Wild ([10]; 62 g ai/ha): 50
- Plant response rating: Oat, Wild ([10]; 125 g ai/ha): 60
- Plant response rating: Speedwell ([11]; 16 g ai/ha): 75
- Plant response rating: Speedwell ([11]; 31 g ai/ha): 85
- Plant response rating: Speedwell ([11]; 62 g ai/ha): 95
- Plant response rating: Speedwell ([11]; 125 g ai/ha): 95
- Plant response rating: Barley, Winter ([12]; 16 g ai/ha): 15
- Plant response rating: Barley, Winter ([12]; 31 g ai/ha): 25
- Plant response rating: Barley, Winter ([12]; 62 g ai/ha): 30
- Plant response rating: Barley, Winter ([12]; 125 g ai/ha): 35
- Plant response rating: Barley, Spring ([13]; 16 g ai/ha): 25
- Plant response rating: Barley, Spring ([13]; 31 g ai/ha): 25
- Plant response rating: Barley, Spring ([13]; 62 g ai/ha): 35
- Plant response rating: Barley, Spring ([13]; 125 g ai/ha): 35
